Data reported in ChEMBL document CHEMBL1201862, “PubChem BioAssay data set” (2004).
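Assay format: 96-well plates, 48-hour exposure. At the GI50, growth is halved.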 Active and inactive are the calls of the source. Cut-off read from the data, not from the text of the source: active = GI50 up to about 1.1 µM and inactive = higher. Residues, ends and D or L forms follow the SMILES beside them. *: point of attachment. Boc = CC(C)(C)OC(=O)*; OBn = c1ccc(CO*)cc1

Legend:
Test in all cases: NCI anticancer screen, dose series, 48 h
A498 = system: A498
A549 = system: A549
CAKI-1 = system: CAKI-1
EKVX = system: EKVX
HCT-116 = system: HCT-116
K562 = system: K562
LOX IMVI = system: LOX IMVI
NCI-H226 = system: NCI-H226
NCI-H522 = system: NCI-H522
OVCAR-5 = system: OVCAR-5
RPMI-8226 = system: RPMI-8226
SF-539 = system: SF-539
SK-MEL-28 = system: SK-MEL-28
SK-MEL-5 = system: SK-MEL-5
SK-OV-3 = system: SK-OV-3
U-251 = system: U-251
UACC-257 = system: UACC-257
UACC-62 = system: UACC-62
Hs-578T = system: Hs-578T
T47D = system: T47D

SMILES | GI50 (A498) | GI50 (A549) | GI50 (CAKI-1) | GI50 (EKVX) | GI50 (HCT-116) | GI50 (K562) | GI50 (LOX IMVI) | GI50 (NCI-H226) | GI50 (NCI-H522) | GI50 (OVCAR-5) | GI50 (RPMI-8226) | GI50 (SF-539) | GI50 (SK-MEL-28) | GI50 (SK-MEL-5) | GI50 (SK-OV-3) | GI50 (U-251) | GI50 (UACC-257) | GI50 (UACC-62) | GI50 (Hs-578T) | GI50 (T47D)
O=C(/C=C/c1ccccc1O)c1ccccc1O | > 100 µM (inactive) | > 100 µM (inactive) | > 100 µM (inactive) | > 100 µM (inactive) | 78 µM (inactive) | 19.8 µM (inactive) | > 100 µM (inactive) | 58.9 µM (inactive) | > 100 µM (inactive) | > 100 µM (inactive) | 40 µM (inactive) | > 100 µM (inactive) | > 100 µM (inactive) | > 100 µM (inactive) | > 100 µM (inactive) | > 100 µM (inactive) | > 100 µM (inactive) | > 100 µM (inactive) |  | 
Cc1ccc(NC(S)=Nc2c(C)n(C)n(-c3ccccc3)c2=O)cc1 | > 100 µM (inactive) | > 100 µM (inactive) | > 100 µM (inactive) | > 100 µM (inactive) | > 100 µM (inactive) | > 100 µM (inactive) | > 100 µM (inactive) | > 100 µM (inactive) | > 100 µM (inactive) | > 100 µM (inactive) | > 100 µM (inactive) | > 100 µM (inactive) | > 100 µM (inactive) | > 100 µM (inactive) | > 100 µM (inactive) | > 100 µM (inactive) | > 100 µM (inactive) | > 100 µM (inactive) | > 100 µM (inactive) | 
COc1cc2c(c(OC)c1OC)C(=O)[C@H](O)[C@H]2NC(N)=O |  | > 100 µM (inactive) | 90.6 µM (inactive) | 99.5 µM (inactive) | 79.4 µM (inactive) | > 100 µM (inactive) | 72.1 µM (inactive) | > 100 µM (inactive) | > 100 µM (inactive) | 76.7 µM (inactive) | > 100 µM (inactive) | > 100 µM (inactive) | > 100 µM (inactive) | 40.7 µM (inactive) |  | 44.2 µM (inactive) | 85.5 µM (inactive) | 17.6 µM (inactive) | 60 µM (inactive) | 
CC1=CC[C@@H]2[C@@H](CC[C@@]2(C)O)C(C)(C)[C@H]1CC[C@@H]1[C@@]2(C)CC[C@@H](O)C(C)(C)O[C@@H]2CC[C@]1(C)O | 15 µM (inactive) | 27.3 µM (inactive) | 20 µM (inactive) |  | 14 µM (inactive) | 15.3 µM (inactive) | 16.3 µM (inactive) |  |  | 29.9 µM (inactive) | 18.9 µM (inactive) | 19.6 µM (inactive) | 16.8 µM (inactive) | 13.3 µM (inactive) | 35.9 µM (inactive) | 17.1 µM (inactive) | 25.6 µM (inactive) | 15.5 µM (inactive) |  | 39.2 µM (inactive)
CC(C)(CN1CCCCC1)C(=O)/C=C/c1ccc(Br)cc1 | 2.58 µM (inactive) | 2.86 µM (inactive) | 0.887 µM (active) | 2.12 µM (inactive) | 2.77 µM (inactive) | 2.59 µM (inactive) | 2.03 µM (inactive) | 5.78 µM (inactive) | 1.82 µM (inactive) | 2.78 µM (inactive) | 3.07 µM (inactive) | 2.09 µM (inactive) | 3.99 µM (inactive) | 4.67 µM (inactive) | 3.04 µM (inactive) | 2.65 µM (inactive) | 6.31 µM (inactive) | 6.56 µM (inactive) |  | 
O=C(CC(C(=O)c1ccsc1)c1cccs1)c1ccsc1 (stereo not given) | 81.8 µM (inactive) | 46.6 µM (inactive) | > 100 µM (inactive) | 49.9 µM (inactive) |  | 42.8 µM (inactive) | 34.1 µM (inactive) | > 100 µM (inactive) |  | > 100 µM (inactive) | 12.1 µM (inactive) |  | 76.2 µM (inactive) | 31.4 µM (inactive) | 54.6 µM (inactive) | > 100 µM (inactive) | 51.4 µM (inactive) | 31.5 µM (inactive) |  | 21.4 µM (inactive)
CC1=NN(C(=O)CC(=O)N(C(=O)c2ccccc2Cl)c2ccc(C)cc2)C(=O)C1/N=N/c1ccc([N+](=O)[O-])cc1 (stereo not given) | > 58.5 µM (inactive) | 34.1 µM (inactive) | > 100 µM (inactive) | > 72.9 µM (inactive) | 17.7 µM (inactive) | > 53.5 µM (inactive) | 23.9 µM (inactive) | > 76 µM (inactive) | > 100 µM (inactive) | > 46.1 µM (inactive) | > 50.4 µM (inactive) | 23.7 µM (inactive) | > 100 µM (inactive) | 99.1 µM (inactive) | 31.8 µM (inactive) | 19.6 µM (inactive) | > 78.3 µM (inactive) | 21.6 µM (inactive) |  | 
O=C(/C=C/c1ccccc1Cl)c1cccc2ccccc12 | 14.4 µM (inactive) | 16.7 µM (inactive) | 12.5 µM (inactive) | 12.8 µM (inactive) | 3.71 µM (inactive) | 4.38 µM (inactive) | 11.4 µM (inactive) | 27.7 µM (inactive) | 6.65 µM (inactive) | 13.6 µM (inactive) | 17.2 µM (inactive) | 10.8 µM (inactive) | 13.7 µM (inactive) | 19.4 µM (inactive) | 18.9 µM (inactive) | 2.66 µM (inactive) | 18 µM (inactive) | 15.2 µM (inactive) |  | 
CN(C)/C=C/c1ccncc1 | > 100 µM (inactive) | > 100 µM (inactive) | > 100 µM (inactive) | > 100 µM (inactive) | > 100 µM (inactive) | > 100 µM (inactive) | > 100 µM (inactive) | > 100 µM (inactive) | > 100 µM (inactive) | > 100 µM (inactive) | > 100 µM (inactive) | > 100 µM (inactive) | > 100 µM (inactive) | > 100 µM (inactive) | > 100 µM (inactive) | > 100 µM (inactive) | > 100 µM (inactive) | > 100 µM (inactive) |  | > 100 µM (inactive)
COc1ccc(C(=O)C2=NON3OC23C(=O)c2ccc(OC)cc2)cc1 (stereo not given) | 13.7 µM (inactive) | 22.4 µM (inactive) | 2.81 µM (inactive) | 19.3 µM (inactive) | 7.26 µM (inactive) | 3.12 µM (inactive) | 5.58 µM (inactive) | 16.8 µM (inactive) | 1.82 µM (inactive) | 20.7 µM (inactive) | 3.37 µM (inactive) | 10.3 µM (inactive) | 17.9 µM (inactive) | 14.1 µM (inactive) | 19.5 µM (inactive) | 16 µM (inactive) | 18.9 µM (inactive) | 17.8 µM (inactive) |  | 
CCOC(=O)c1c(-c2cccc3ccccc23)c(C#N)c(=S)n(C2OC(COC(C)=O)C(OC(C)=O)C(OC(C)=O)C2OC(C)=O)c1C (stereo not given) | > 100 µM (inactive) | > 100 µM (inactive) |  |  | > 100 µM (inactive) | > 100 µM (inactive) | > 100 µM (inactive) | > 100 µM (inactive) | > 100 µM (inactive) | > 100 µM (inactive) |  | > 100 µM (inactive) | > 100 µM (inactive) | > 100 µM (inactive) | > 100 µM (inactive) | > 100 µM (inactive) | > 100 µM (inactive) | > 100 µM (inactive) |  | > 100 µM (inactive)
CC(=O)c1sc(Nc2ccc(Cl)c(Cl)c2)nc1C | 32.4 µM (inactive) | 96.6 µM (inactive) | 74.3 µM (inactive) | 5.64 µM (inactive) | > 100 µM (inactive) |  | > 100 µM (inactive) | 78 µM (inactive) |  | > 100 µM (inactive) | 64.4 µM (inactive) | > 100 µM (inactive) | > 100 µM (inactive) | > 100 µM (inactive) | > 100 µM (inactive) | > 100 µM (inactive) | 68.5 µM (inactive) | > 100 µM (inactive) |  | 40 µM (inactive)
COC(=O)CCC(C)C1CCC2C3C(C[C@H](OC(C)=O)[C@]12C)[C@@]1(C)CCC2(C[C@H]1C[C@H]3OC(C)=O)OOC1(CC[C@]3(C)C4C[C@H](OC(C)=O)[C@]5(C)C(C(C)CCC(=O)OC)CCC5C4[C@H](OC(C)=O)C[C@@H]3C1)OO2 (stereo not given in full) |  | 91.8 µM (inactive) | 24 µM (inactive) | > 100 µM (inactive) | > 100 µM (inactive) | > 100 µM (inactive) | > 100 µM (inactive) | 66.8 µM (inactive) | > 100 µM (inactive) | > 100 µM (inactive) | > 100 µM (inactive) |  | > 100 µM (inactive) | > 100 µM (inactive) | > 100 µM (inactive) | 45.1 µM (inactive) | > 100 µM (inactive) |  | > 100 µM (inactive) | 
COc1ccc(CCc2cc(OC)cc(OC)c2)cc1 | 17 µM (inactive) | 19.2 µM (inactive) | 13.2 µM (inactive) | 45.1 µM (inactive) | 24.3 µM (inactive) | 3.34 µM (inactive) | 38.8 µM (inactive) | 30.7 µM (inactive) | 4.98 µM (inactive) | > 61.5 µM (inactive) | 16.1 µM (inactive) | 31.6 µM (inactive) | 29.6 µM (inactive) | 19.2 µM (inactive) | 36.6 µM (inactive) | 31.6 µM (inactive) | 51.4 µM (inactive) | 11.9 µM (inactive) |  | 
CC(C)C(NC(=O)C(Cc1ccccc1)NC(=O)OC(C)(C)C)C(=O)NCC(=O)OCc1ccccc1 (stereo not drawn) (Boc-Phe-Val-Gly-OBn; configuration not given here) | 44.6 µM (inactive) |  | 18.8 µM (inactive) | 20.4 µM (inactive) | 23.7 µM (inactive) | 7.76 µM (inactive) | 14.9 µM (inactive) |  | 6.55 µM (inactive) | 15.1 µM (inactive) | 16.5 µM (inactive) | 25.3 µM (inactive) | 16.3 µM (inactive) |  | 13.4 µM (inactive) | 17.6 µM (inactive) | 20.4 µM (inactive) | 16.9 µM (inactive) |  | 18.7 µM (inactive)
